Assay results published in patent publication US11780841B2, “3,6-methano-1H-pyrrolo[3,2-b]pyridine and 3,6-methano-1H-pyrrolo[3,2-c]pyridine compounds and medicaments using same” (priority 2018, dated 2023).
pIC50: −log10 of the molar value. Like-named read-outs stand apart in the source and are kept apart here.

Test system: recombinant rabies virus 1088 strain expressing Gaussia Luciferase (GLuc) (1088/GLuc)
Type: cell-based

Row | SMILES | pIC50 (read-out: Anti-rabies activity) | pIC50 (read-out: IC50)
1 | Cc1ccc(CN2C[C@H]3C[C@@]4(C(=O)NCc5ccccc5)[C@H](CC(C)C)[C@@H]2[C@@H]3CN4C(=O)Cc2ccccc2)cc1 [IF-859] | 5.00 to 5.30 | 
2 | CC(C)C[C@@H]1[C@H]2CN[C@@]3(C(=O)NCc4ccccc4)[C@@H](C2)CN(Cc2ccc(O)cc2)[C@@H]13 [IB-787] | 4.52 to 5.00 | 
3 | N=C(N)NCCCN1C[C@@H]2C[C@@H]3CN[C@]2(C(=O)NCCc2ccccc2)[C@@H]1[C@@H]3Cc1cccc2ccccc12 [IB-327] | 4.52 to 5.00 | 
4 | CC(C)CC1C2C=NC3(C(=O)NCc4ccccc4)C(C2)CN(Cc2ccc(OC(F)(F)F)cc2)C13 (centres unmarked) [IIB-96] | 5.00 to 5.30 | 
5 | CC(C)CC[C@@H]1[C@@H]2[C@@H]3CN[C@@]1(C(=O)NCCc1ccccc1)C[C@@H]3CN2CC1CCCCC1 [IF-717] | > 5.30 | 
6 | CC(C)CNC(=O)[C@@]12C[C@@H]3CN(Cc4ccc(F)cc4)[C@@H]([C@@H]3CN1)[C@H]2Cc1ccccc1 [IF-653] | 4.52 to 5.00 | 
7 | O=C(NCCO)[C@@]12C[C@@H]3CN(CCc4ccccc4)[C@@H]([C@@H]3CN1)[C@H]2Cc1cccc2ccccc12 [IF-612] | 4.52 to 5.00 | 
8 | CC(C)CCN1CC2CC3CNC2(C(=O)NCc2ccc(F)cc2)C1C3CC(C)C (centres unmarked) [IB-553] | > 5.30 | 
9 | CC(C)CCC1C2C=NC3(C(=O)NCc4ccccc4)C(C2)CN(Cc2ccc(O)cc2)C13 (centres unmarked) [IIB-101] | 5.00 to 5.30 | 
10 | COC(=O)N1C[C@@H]2[C@H]3CN(Cc4ccc(C)cc4)[C@@H]2[C@@H](CC(C)C)[C@]1(C(=O)NCc1ccccc1)C3 [IF-860] | 4.52 to 5.00 | 
11 | O=C(NCc1ccc(O)cc1)[C@]12NC[C@H]3C[C@H]1CN(CCO)[C@H]2[C@@H]3Cc1cccc2ccccc12 [IB-470] | 4.52 to 5.00 | 
12 | O=C(NCc1ccc(O)cc1)[C@@]12C[C@@H]3CN(CC4CCCCC4)[C@@H]([C@@H]3CN1)[C@H]2Cc1ccccc1 [IF-477] | > 5.30 | 
13 | CC(C)CCN1C[C@H]2C[C@]3(C(=O)NCC(C)C)NC[C@H]2[C@H]1[C@H]3CCc1ccccc1 [IF-635] | 4.52 to 5.00 | 
14 | CCCCCCNC(=O)[C@@]12C[C@@H]3CN(CCC(C)C)[C@@H]([C@@H]3CN1)[C@H]2Cc1ccccc1 (relative stereo) [IF-599] | 4.52 to 5.00 | 
15 | CC(C)C[C@@H]1[C@@H]2[C@@H]3CN[C@@]1(C(=O)NCc1ccc(Cl)cc1)C[C@@H]3CN2CC(C)C [IF-846] | 4.52 to 5.00 | 
16 | CC(C)CCN1C[C@H]2C[C@]3(C(=O)NCc4ccc(O)cc4)NC[C@H]2[C@H]1[C@H]3CCc1ccccc1 [IF-464] | 4.52 to 5.00 | 
17 | CC(C)C[C@@H]1[C@@H]2[C@@H]3CN[C@@]1(C(=O)NCc1ccc(C(F)(F)F)cc1)C[C@@H]3CN2Cc1ccccc1 [IF-838] | 4.52 to 5.00 | 
18 | CCCCCCNC(=O)[C@]12NC[C@H]3C[C@H]1CN(CCO)[C@H]2[C@@H]3CC(C)C [IB-477] | > 5.30 | 
19 | O=C(NCCc1ccccc1)[C@@]12C[C@@H]3CN(Cc4ccc(F)cc4)[C@@H]([C@@H]3CN1)[C@H]2Cc1ccc(O)cc1 [IF-715] | > 5.30 | 
20 | CC(C)CC[C@@H]1[C@H]2CN[C@@]3(C(=O)NCCC(N)=O)[C@@H](C2)CN(CC2CCCCC2)[C@@H]13 [IB-357] | 4.52 to 5.00 | 
21 | CC(C)CCN1C[C@H]2C[C@]3(C(=O)NC(C)C)NC[C@H]2[C@H]1[C@H]3CCCNC(=N)N [IF-214] | 4.52 to 5.00 | 
22 | COc1ccc(CN2C[C@H]3C[C@]4(C(=O)NCc5ccccc5)NC[C@H]3[C@H]2[C@H]4CC(C)C)cc1 [IF-841] | 5.00 to 5.30 | 

Row | SMILES | pIC50 (read-out: Anti-rabies activity) | pIC50 (read-out: IC50)
23 | CC(C)CC[C@@H]1[C@H]2CN[C@@]3(C(=O)NCc4ccc(F)cc4)[C@@H](C2)CN(CCO)[C@@H]13 [IB-657] | 4.52 to 5.00 | 
24 | CC(C)C[C@@H]1[C@@H]2[C@@H]3CN[C@@]1(C(=O)NCCO)C[C@@H]3CN2Cc1cccc2ccccc12 [IF-604] | 4.52 to 5.00 | 
25 | CC(C)C[C@@H]1[C@H]2CN[C@@]3(C(=O)NCc4ccc(O)cc4)[C@@H](C2)CN(Cc2ccc(N(C)C)cc2)[C@@H]13 (relative stereo) [IB-892] | 4.52 to 5.00 | 
26 | CC(C)CC[C@@H]1[C@H]2CN[C@@]3(C(=O)NCCCNC(=N)N)[C@@H](C2)CN(Cc2ccc(F)cc2)[C@@H]13 [IB-369] | 4.52 to 5.00 | 
27 | CC(C)CN1C[C@@H]2C[C@@H]3CN[C@]2(C(=O)NCc2ccc(F)cc2)[C@@H]1[C@@H]3Cc1ccc(O)cc1 [IB-498] | > 5.30 | 
28 | O=C(O)CC[C@@H]1[C@H]2CN[C@@]3(C(=O)NCc4cccc5ccccc45)[C@@H](C2)CN(CCO)[C@@H]13 [IB-425] | 4.52 to 5.00 | 
29 | O=C(NCc1ccc(F)cc1)C12NCC3CC1CN(Cc1ccccc1)C2C3CCc1ccccc1 (centres unmarked) [IB-568] | 4.52 to 5.00 | 
30 | O=C(O)CCNC(=O)[C@]12NC[C@H]3C[C@H]1CN(Cc1ccc(F)cc1)[C@H]2[C@@H]3Cc1cccc2ccccc12 [IB-384] | 4.52 to 5.00 | 
31 | Cc1cccc(CNC(=O)[C@]23NC[C@@H]4C[C@H]2CN(CC(C)C)[C@H]3[C@@H]4Cc2ccccc2)c1 (relative stereo) [IB-15] | 4.52 to 5.00 | 4.80
32 | CC(C)CNC(=O)[C@@]12C[C@@H]3CN(Cc4cccc5ccccc45)[C@@H]([C@@H]3CN1)[C@H]2CC(N)=O [IF-226] | 4.52 to 5.00 | 
33 | CC(C)CC[C@@H]1[C@H]2CN[C@@]3(C(=O)NCc4ccc(F)cc4)[C@@H](C2)CN(CCC(=O)O)[C@@H]13 [IB-399] | 4.52 to 5.00 | 
34 | CC(C)NC(=O)[C@@]12C[C@@H]3CN(Cc4cccc5ccccc45)[C@@H]([C@@H]3CN1)[C@H]2CCc1ccccc1 [IF-789] | 4.52 to 5.00 | 
35 | CC(C)CN1C[C@H]2C[C@]3(C(=O)NCc4cccc5ccccc45)NC[C@H]2[C@H]1[C@H]3Cc1ccc(O)cc1 (relative stereo) [IF-568] | > 5.30 | 
36 | O=C(NCCO)[C@]12NC[C@H]3C[C@H]1CN(Cc1ccccc1)[C@H]2[C@@H]3CCc1ccccc1 [IB-681] | 4.52 to 5.00 | 
37 | CC(C)CN1C[C@@H]2C[C@@H]3CN[C@]2(C(=O)NCCC(N)=O)[C@@H]1[C@@H]3Cc1cccc2ccccc12 [IB-737] | 4.52 to 5.00 | 
38 | CC(C)CCNC(=O)[C@]12NC[C@H]3C[C@H]1CN(CC(C)C)[C@H]2[C@@H]3CCCNC(=N)N [IB-192] | > 5.30 | 
39 | CC(C)NC(=O)[C@]12NC[C@H]3C[C@H]1CN(CCCNC(=N)N)[C@H]2[C@@H]3CCc1ccccc1 [IB-179] | 4.52 to 5.00 | 
40 | O=C(NCc1ccccc1)[C@@]12C[C@@H]3CN(Cc4cccc5ccccc45)[C@@H]([C@@H]3CN1)[C@H]2Cc1ccccc1 (relative stereo) [IF-42] | 4.52 to 5.00 | 
41 | O=C(NCCO)[C@@]12C[C@@H]3CN(CC4CCCCC4)[C@@H]([C@@H]3CN1)[C@H]2Cc1cccc2ccccc12 [IF-619] | 4.52 to 5.00 | 
42 | N=C(N)NCCCN1C[C@@H]2C[C@@H]3CN[C@]2(C(=O)NCc2ccc(F)cc2)[C@@H]1[C@@H]3Cc1ccccc1 [IB-182] | 4.52 to 5.00 | 
43 | O=C(O)CCNC(=O)[C@@]12C[C@@H]3CN(Cc4ccc(F)cc4)[C@@H]([C@@H]3CN1)[C@H]2Cc1cccc2ccccc12 [IF-417] | 4.52 to 5.00 | 
44 | CC(C)CCN1C[C@@H]2C[C@@H]3CN[C@]2(C(=O)NCc2ccccc2)[C@@H]1[C@@H]3Cc1ccc(O)cc1 [IB-749] | 4.52 to 5.00 | 

Row | SMILES | pIC50 (read-out: Anti-rabies activity) | pIC50 (read-out: IC50)
45 | N=C(N)NCCC[C@@H]1[C@H]2CN[C@@]3(C(=O)NCc4ccc(F)cc4)[C@@H](C2)CN(Cc2ccccc2)[C@@H]13 [IB-250] | 4.52 to 5.00 | 
46 | N=C(N)NCCCNC(=O)[C@]12NC[C@H]3C[C@H]1CN(Cc1ccccc1)[C@H]2[C@@H]3CCc1ccccc1 [IB-279] | 4.52 to 5.00 | 
47 | CC(C)CNC(=O)[C@@]12C[C@@H]3CN(Cc4ccccc4)[C@@H]([C@@H]3CN1)[C@H]2CCc1ccccc1 [IF-670] | > 5.30 | 
48 | CC(C)CNC(=O)[C@]12NC[C@H]3C[C@H]1CN(Cc1cccc4ccccc14)[C@H]2[C@@H]3Cc1ccc(O)cc1 [IB-763] | 4.52 to 5.00 | 
49 | N=C(N)NCCC[C@@H]1[C@@H]2[C@@H]3CN[C@@]1(C(=O)NCCO)C[C@@H]3CN2Cc1cccc2ccccc12 [IF-239] | 4.52 to 5.00 | 
50 | CC(C)C[C@@H]1[C@H]2CN[C@@]3(C(=O)NCCO)[C@@H](C2)CN(Cc2cccc4ccccc24)[C@@H]13 [IB-643] | 4.52 to 5.00 | 
51 | CCCCCCNC(=O)C12NCC3CC1CN(Cc1ccccc1)C2C3Cc1ccccc1 (centres unmarked) [IB-562] | 4.52 to 5.00 | 
52 | O=C(NCc1ccccc1)[C@]12NC[C@H]3C[C@H]1CN(CCO)[C@H]2[C@@H]3CCc1ccccc1 [IB-618] | > 5.30 | 
53 | O=C(NCCc1ccccc1)[C@@]12C[C@@H]3CN(Cc4cccc5ccccc45)[C@@H]([C@@H]3CN1)[C@H]2Cc1ccc(O)cc1 [IF-708] | > 5.30 | 
54 | CC(C)CC[C@@H]1[C@@H]2[C@@H]3CN[C@@]1(C(=O)NCc1ccc(O)cc1)C[C@@H]3CN2CCc1ccccc1 [IF-468] | 4.52 to 5.00 | 
55 | NC(=O)CN1C[C@H]2C[C@]3(C(=O)NCc4ccc(O)cc4)NC[C@H]2[C@H]1[C@H]3Cc1cccc2ccccc12 [IF-137] | > 5.30 | 
56 | NC(=O)CN1C[C@H]2C[C@]3(C(=O)NCCc4ccccc4)NC[C@H]2[C@H]1[C@H]3Cc1cccc2ccccc12 (relative stereo) [IF-90] | 4.52 to 5.00 | 
57 | CC(C)CCNC(=O)[C@@]12C[C@@H]3CN(CCc4ccccc4)[C@@H]([C@@H]3CN1)[C@H]2Cc1ccccc1 [IF-744] | > 5.30 | 
58 | CC(C)C[C@@H]1[C@@H]2[C@@H]3CN[C@@]1(C(=O)NCc1ccccc1)C[C@@H]3CN2Cc1ccc(F)cc1 [IF-650] | > 5.30 | 
59 | CC(C)CC[C@@H]1[C@@H]2[C@@H]3CN[C@@]1(C(=O)NCc1ccc(O)cc1)C[C@@H]3CN2Cc1ccc(F)cc1 [IF-479] | > 5.30 | 
60 | CC(C)CC[C@@H]1[C@@H]2[C@@H]3CN[C@@]1(C(=O)NCc1ccc(O)cc1)C[C@@H]3CN2Cc1ccccc1 [IF-493] | > 5.30 | 
61 | N=C(N)NCCC[C@@H]1[C@@H]2[C@@H]3CN[C@@]1(C(=O)NCc1cccc4ccccc14)C[C@@H]3CN2Cc1ccc(F)cc1 [IF-297] | 4.52 to 5.00 | 
62 | O=C(NCCO)[C@@]12C[C@@H]3CN(Cc4ccc(F)cc4)[C@@H]([C@@H]3CN1)[C@H]2Cc1cccc2ccccc12 [IF-620] | > 5.30 | 
63 | CC(C)CNC(=O)[C@]12NC[C@@H]3C[C@H]1CN(CC(C)C)[C@H]2[C@@H]3Cc1ccccc1 (relative stereo) [IB-3] | 4.52 to 5.00 | 4.71
64 | CC(C)CC[C@@H]1[C@H]2CN[C@@]3(C(=O)NCCC(N)=O)[C@@H](C2)CN(CCc2ccccc2)[C@@H]13 [IB-342] | 4.52 to 5.00 | 
65 | NC(=O)CCNC(=O)[C@]12NC[C@H]3C[C@H]1CN(Cc1ccccc1)[C@H]2[C@@H]3Cc1cccc2ccccc12 [IB-813] | > 5.30 | 
66 | N=C(N)NCCCNC(=O)[C@@]12C[C@@H]3CN(Cc4cccc5ccccc45)[C@@H]([C@@H]3CN1)[C@H]2Cc1ccccc1 [IF-386] | 4.52 to 5.00 | 
